Measurements taken from the kinase profiling compilation of Christmann-Franck et al. (2016).
Values belong to the molecule of their own block, whether it stands above or below them.

Tests used:
Assay in all cases: radiometric filter-binding kinase assay
[1] = molecular target: NTRK1 (human) (UniProt P04629)
[2] = molecular target: STK11 CAB39 STRADA (human) (UniProt Q9Y376+Q7RTN6+Q15831)
[3] = molecular target: RPS6KA1 KD1 KD2 (human) (UniProt Q15418)
[4] = molecular target: TBK1 (human) (UniProt Q9UHD2)
[5] = molecular target: MKNK2 (human) (UniProt Q9HBH9)
[6] = molecular target: PIM1 (human) (UniProt P11309)
[7] = molecular target: NUAK1 (human) (UniProt O60285)
[8] = molecular target: CHEK2 (human) (UniProt O96017)
[9] = molecular target: MARK3 (human) (UniProt P27448)
[10] = molecular target: CaMK1 (human) (UniProt Q14012)
[11] = molecular target: MARK1 (human) (UniProt Q9P0L2)
[12] = molecular target: MAPK3 (human) (UniProt P27361)
[13] = molecular target: TTK (human) (UniProt P33981)
[14] = molecular target: DYRK1A (human) (UniProt Q13627)
[15] = tested on: RPS6KB1 (human), P23443 [T412E]
[16] = molecular target: MAPK9 (human) (UniProt P45984)
[17] = molecular target: MAPK14 (human) (UniProt Q16539)
[18] = molecular target: MAPKAPK2 (human) (UniProt P49137)
[19] = molecular target: MAPK8 (human) (UniProt P45983)
[20] = molecular target: NEK2 (human) (UniProt P51955)
[21] = molecular target: STK3 (human) (UniProt Q13188)
[22] = molecular target: IKBKE (human) (UniProt Q14164)
[23] = molecular target: DYRK3 (human) (UniProt O43781)
[24] = molecular target: PAK4 (human) (UniProt O96013)
[25] = molecular target: IKBKB (human) (UniProt O14920)
[26] = molecular target: MARK2 (human) (UniProt Q7KZI7)
[27] = molecular target: IRAK4 (human) (UniProt Q9NWZ3)
[28] = molecular target: NEK6 (human) (UniProt Q9HC98)
[29] = molecular target: MKNK1 (human) (UniProt Q9BUB5)
[30] = molecular target: JAK2 JH1 JH2 (human) (UniProt O60674)
[31] = molecular target: EPHB2 (human) (UniProt P29323)
[32] = molecular target: CSNK1D (human) (UniProt P48730)
[33] = molecular target: MAP2K1 (human) (UniProt Q02750)
[34] = tested on: AKT1 (human), P31749 [S473D]
[35] = molecular target: MAP3K11 (human) (UniProt Q16584)

Sequence of NEK2 (human) (P51955 whole entry, looked up): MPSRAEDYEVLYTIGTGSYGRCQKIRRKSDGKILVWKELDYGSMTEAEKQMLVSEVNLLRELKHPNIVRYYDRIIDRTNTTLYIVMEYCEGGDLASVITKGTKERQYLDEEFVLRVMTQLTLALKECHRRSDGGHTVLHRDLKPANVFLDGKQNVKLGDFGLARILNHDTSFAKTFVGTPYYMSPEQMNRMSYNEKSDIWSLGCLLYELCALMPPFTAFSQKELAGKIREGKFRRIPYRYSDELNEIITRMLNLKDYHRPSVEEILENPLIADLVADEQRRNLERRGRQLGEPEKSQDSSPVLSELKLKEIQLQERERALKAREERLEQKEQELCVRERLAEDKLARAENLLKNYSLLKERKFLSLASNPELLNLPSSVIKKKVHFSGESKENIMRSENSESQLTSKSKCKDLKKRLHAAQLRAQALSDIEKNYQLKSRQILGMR
Sequence of MAPK8 (human) (P45983 whole entry, looked up): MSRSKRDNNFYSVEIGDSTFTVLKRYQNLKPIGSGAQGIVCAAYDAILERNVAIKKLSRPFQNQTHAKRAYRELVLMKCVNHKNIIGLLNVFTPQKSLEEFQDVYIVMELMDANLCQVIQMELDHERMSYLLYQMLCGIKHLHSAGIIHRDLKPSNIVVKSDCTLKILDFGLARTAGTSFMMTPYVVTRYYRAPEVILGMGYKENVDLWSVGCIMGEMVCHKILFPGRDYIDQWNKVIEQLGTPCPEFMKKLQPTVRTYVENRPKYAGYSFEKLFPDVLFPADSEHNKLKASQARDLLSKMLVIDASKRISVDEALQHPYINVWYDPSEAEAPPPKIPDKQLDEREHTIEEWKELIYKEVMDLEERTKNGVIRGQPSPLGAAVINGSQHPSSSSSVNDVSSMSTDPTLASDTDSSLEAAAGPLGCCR
Sequence of IRAK4 (human) (Q9NWZ3 whole entry, looked up): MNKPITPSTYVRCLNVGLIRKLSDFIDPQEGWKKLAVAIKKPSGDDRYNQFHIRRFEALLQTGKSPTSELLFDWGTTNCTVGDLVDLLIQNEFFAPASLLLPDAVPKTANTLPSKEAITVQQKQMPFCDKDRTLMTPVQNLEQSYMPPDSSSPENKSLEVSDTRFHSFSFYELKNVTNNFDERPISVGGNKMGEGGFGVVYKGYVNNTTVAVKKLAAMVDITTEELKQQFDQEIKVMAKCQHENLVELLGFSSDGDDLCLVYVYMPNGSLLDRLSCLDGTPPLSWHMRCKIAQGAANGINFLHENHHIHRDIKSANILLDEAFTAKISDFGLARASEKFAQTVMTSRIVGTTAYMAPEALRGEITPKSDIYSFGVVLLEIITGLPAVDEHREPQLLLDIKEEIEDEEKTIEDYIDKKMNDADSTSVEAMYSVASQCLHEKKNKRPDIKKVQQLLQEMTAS
Sequence of PAK4 (human) (O96013 whole entry, looked up): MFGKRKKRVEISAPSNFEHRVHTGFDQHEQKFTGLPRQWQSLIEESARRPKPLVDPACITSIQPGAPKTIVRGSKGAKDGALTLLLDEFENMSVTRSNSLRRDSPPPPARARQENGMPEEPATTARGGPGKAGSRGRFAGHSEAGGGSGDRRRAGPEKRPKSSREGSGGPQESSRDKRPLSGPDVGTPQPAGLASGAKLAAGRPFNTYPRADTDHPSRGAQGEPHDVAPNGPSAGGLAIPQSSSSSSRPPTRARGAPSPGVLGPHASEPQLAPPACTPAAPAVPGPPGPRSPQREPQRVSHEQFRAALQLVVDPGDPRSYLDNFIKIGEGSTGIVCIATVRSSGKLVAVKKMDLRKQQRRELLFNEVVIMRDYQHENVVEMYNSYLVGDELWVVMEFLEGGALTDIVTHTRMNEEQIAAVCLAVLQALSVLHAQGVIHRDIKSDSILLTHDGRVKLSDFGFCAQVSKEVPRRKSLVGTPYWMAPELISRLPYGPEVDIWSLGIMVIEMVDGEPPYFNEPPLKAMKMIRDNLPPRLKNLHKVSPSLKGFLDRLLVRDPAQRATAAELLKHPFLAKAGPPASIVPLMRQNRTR
Sequence of MKNK1 (human) (Q9BUB5 whole entry, looked up): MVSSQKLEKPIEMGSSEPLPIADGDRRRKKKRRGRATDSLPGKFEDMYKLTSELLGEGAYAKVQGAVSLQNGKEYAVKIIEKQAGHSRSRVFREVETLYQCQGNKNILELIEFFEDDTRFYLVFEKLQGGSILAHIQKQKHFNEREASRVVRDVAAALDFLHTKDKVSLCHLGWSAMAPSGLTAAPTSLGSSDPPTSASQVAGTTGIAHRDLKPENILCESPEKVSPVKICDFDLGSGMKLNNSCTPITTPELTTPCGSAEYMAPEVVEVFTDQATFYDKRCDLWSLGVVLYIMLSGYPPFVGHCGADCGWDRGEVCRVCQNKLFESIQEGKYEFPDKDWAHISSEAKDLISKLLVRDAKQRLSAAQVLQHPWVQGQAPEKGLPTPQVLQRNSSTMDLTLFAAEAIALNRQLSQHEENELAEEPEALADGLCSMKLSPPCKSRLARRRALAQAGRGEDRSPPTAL
Sequence of CaMK1 (human) (Q14012 whole entry, looked up): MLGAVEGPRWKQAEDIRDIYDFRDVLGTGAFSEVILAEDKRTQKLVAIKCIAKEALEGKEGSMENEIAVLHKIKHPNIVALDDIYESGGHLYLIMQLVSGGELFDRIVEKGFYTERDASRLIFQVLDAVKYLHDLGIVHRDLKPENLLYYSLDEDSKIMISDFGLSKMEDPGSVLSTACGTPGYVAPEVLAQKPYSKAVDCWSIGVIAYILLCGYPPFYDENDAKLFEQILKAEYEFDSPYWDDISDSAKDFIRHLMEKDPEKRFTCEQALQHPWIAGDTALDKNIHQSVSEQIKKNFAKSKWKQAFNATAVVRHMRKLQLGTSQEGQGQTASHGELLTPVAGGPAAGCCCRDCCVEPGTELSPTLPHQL
Sequence of STK3 (human) (Q13188 whole entry, looked up): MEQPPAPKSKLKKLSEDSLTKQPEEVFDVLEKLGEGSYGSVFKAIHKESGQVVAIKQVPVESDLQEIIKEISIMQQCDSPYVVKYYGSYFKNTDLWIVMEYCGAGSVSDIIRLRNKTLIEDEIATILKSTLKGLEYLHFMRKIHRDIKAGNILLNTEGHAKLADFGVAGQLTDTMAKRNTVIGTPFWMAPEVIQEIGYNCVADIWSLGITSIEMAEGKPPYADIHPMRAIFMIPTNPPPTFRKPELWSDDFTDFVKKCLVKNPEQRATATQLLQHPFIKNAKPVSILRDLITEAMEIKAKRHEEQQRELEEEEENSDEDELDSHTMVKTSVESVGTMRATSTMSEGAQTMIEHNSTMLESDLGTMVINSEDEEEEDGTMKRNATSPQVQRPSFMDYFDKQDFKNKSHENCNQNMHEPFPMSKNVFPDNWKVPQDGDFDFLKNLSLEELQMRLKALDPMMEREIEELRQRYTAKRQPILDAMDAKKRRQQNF
Sequence of IKBKE (human) (Q14164 whole entry, looked up): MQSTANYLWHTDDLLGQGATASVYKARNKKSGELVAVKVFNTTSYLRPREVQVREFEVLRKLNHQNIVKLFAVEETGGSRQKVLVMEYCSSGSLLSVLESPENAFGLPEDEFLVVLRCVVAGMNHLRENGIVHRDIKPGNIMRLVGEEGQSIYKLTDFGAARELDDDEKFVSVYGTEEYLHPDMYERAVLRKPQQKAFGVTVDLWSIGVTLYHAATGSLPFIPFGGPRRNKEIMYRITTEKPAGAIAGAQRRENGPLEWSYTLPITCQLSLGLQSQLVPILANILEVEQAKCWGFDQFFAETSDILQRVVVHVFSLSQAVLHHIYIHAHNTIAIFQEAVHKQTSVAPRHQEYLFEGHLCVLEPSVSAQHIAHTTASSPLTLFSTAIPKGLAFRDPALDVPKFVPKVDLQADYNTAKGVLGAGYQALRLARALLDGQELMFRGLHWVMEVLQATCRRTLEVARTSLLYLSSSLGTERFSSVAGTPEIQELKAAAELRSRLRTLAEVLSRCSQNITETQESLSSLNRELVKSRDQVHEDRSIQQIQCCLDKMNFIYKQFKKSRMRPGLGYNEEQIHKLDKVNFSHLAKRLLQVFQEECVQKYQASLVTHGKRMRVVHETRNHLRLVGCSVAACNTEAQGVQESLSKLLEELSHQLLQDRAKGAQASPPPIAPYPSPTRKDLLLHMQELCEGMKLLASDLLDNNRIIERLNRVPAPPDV
Sequence of CHEK2 (human) (O96017 whole entry, looked up): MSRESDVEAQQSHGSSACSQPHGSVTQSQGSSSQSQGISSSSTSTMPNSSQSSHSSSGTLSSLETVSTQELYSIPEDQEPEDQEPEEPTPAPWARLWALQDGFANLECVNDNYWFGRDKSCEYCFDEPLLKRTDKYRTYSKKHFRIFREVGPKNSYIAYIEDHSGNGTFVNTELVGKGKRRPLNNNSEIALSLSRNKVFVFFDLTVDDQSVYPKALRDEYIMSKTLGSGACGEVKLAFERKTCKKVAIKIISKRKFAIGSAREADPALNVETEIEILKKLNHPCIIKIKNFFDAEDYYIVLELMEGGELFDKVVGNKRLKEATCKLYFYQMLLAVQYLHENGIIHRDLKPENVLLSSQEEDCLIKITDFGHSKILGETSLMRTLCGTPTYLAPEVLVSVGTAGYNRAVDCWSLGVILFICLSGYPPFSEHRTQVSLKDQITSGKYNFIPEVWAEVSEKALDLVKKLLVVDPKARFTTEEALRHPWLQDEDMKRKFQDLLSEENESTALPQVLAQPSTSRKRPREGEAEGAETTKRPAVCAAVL
Sequence of CSNK1D (human) (P48730 whole entry, looked up): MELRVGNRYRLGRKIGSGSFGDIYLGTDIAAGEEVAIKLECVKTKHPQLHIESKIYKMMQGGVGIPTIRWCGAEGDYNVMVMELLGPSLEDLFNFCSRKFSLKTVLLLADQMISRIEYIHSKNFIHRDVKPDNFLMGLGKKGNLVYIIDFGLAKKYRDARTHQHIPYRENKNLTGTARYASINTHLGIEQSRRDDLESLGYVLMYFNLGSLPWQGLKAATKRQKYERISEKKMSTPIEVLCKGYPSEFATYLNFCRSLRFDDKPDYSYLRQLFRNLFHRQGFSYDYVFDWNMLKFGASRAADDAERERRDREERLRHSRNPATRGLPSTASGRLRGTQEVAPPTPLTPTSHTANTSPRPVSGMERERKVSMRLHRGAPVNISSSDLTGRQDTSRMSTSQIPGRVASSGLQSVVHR

residual activity ([1]; compound 0.1 µM): 104%
residual activity ([1]; compound 1.0 µM): 99%
residual activity ([1]; compound 10.0 µM): 97%
residual activity ([2]; compound 0.1 µM): 108%
residual activity ([2]; compound 10.0 µM): 57%
residual activity ([3]; compound 0.1 µM): 33%
residual activity ([3]; compound 1.0 µM): 15%
residual activity ([3]; compound 10.0 µM): 9%
residual activity ([4]; compound 0.1 µM): 88%
residual activity ([4]; compound 1.0 µM): 93%
residual activity ([4]; compound 10.0 µM): 78%
residual activity ([5]; compound 0.1 µM): 110%
residual activity ([5]; compound 1.0 µM): 116%
residual activity ([5]; compound 10.0 µM): 77%
residual activity ([6]; compound 0.1 µM): 94%
residual activity ([6]; compound 1.0 µM): 35%
residual activity ([6]; compound 10.0 µM): 7%
residual activity ([7]; compound 0.1 µM): 101%
residual activity ([7]; compound 1.0 µM): 91%
residual activity ([7]; compound 10.0 µM): 59%
residual activity ([8]; compound 0.1 µM): 94%
residual activity ([8]; compound 1.0 µM): 89%
residual activity ([8]; compound 10.0 µM): 69%
residual activity ([9]; compound 0.1 µM): 88%
residual activity ([9]; compound 1.0 µM): 87%
residual activity ([9]; compound 10.0 µM): 56%
residual activity ([10]; compound 0.1 µM): 119%
residual activity ([10]; compound 1.0 µM): 109%
residual activity ([10]; compound 10.0 µM): 109%
residual activity ([11]; compound 0.1 µM): 85%
residual activity ([11]; compound 1.0 µM): 95%
residual activity ([11]; compound 10.0 µM): 71%
residual activity ([12]; compound 0.1 µM): 95%
residual activity ([12]; compound 1.0 µM): 98%
residual activity ([12]; compound 10.0 µM): 97%
residual activity ([13]; compound 0.1 µM): 83%
residual activity ([13]; compound 1.0 µM): 84%
residual activity ([13]; compound 10.0 µM): 65%
residual activity ([14]; compound 0.1 µM): 92%
residual activity ([14]; compound 1.0 µM): 73%
residual activity ([14]; compound 10.0 µM): 35%
residual activity ([15]; compound 0.1 µM): 16%
residual activity ([15]; compound 1.0 µM): 5%
residual activity ([15]; compound 10.0 µM): 4%
residual activity ([16]; compound 0.1 µM): 109%
residual activity ([16]; compound 1.0 µM): 103%
residual activity ([16]; compound 10.0 µM): 95%
residual activity ([17]; compound 0.1 µM): 101%
residual activity ([17]; compound 1.0 µM): 95%
residual activity ([17]; compound 10.0 µM): 94%
residual activity ([18]; compound 0.1 µM): 112%
residual activity ([18]; compound 1.0 µM): 104%
residual activity ([18]; compound 10.0 µM): 102%
residual activity ([19]; compound 0.1 µM): 112%
residual activity ([19]; compound 1.0 µM): 105%
residual activity ([19]; compound 10.0 µM): 101%
residual activity ([20]; compound 0.1 µM): 98%
residual activity ([20]; compound 1.0 µM): 93%
residual activity ([20]; compound 10.0 µM): 106%
residual activity ([21]; compound 0.1 µM): 106%
residual activity ([21]; compound 1.0 µM): 97%
residual activity ([21]; compound 10.0 µM): 71%
residual activity ([22]; compound 0.1 µM): 111%
residual activity ([22]; compound 1.0 µM): 110%
residual activity ([22]; compound 10.0 µM): 115%
residual activity ([23]; compound 0.1 µM): 107%
residual activity ([23]; compound 1.0 µM): 93%
residual activity ([23]; compound 10.0 µM): 72%
residual activity ([24]; compound 1.0 µM): 96%
residual activity ([24]; compound 10.0 µM): 79%
residual activity ([25]; compound 0.1 µM): 98%
residual activity ([25]; compound 1.0 µM): 97%
residual activity ([25]; compound 10.0 µM): 100%
residual activity ([26]; compound 0.1 µM): 99%
residual activity ([26]; compound 1.0 µM): 92%
residual activity ([26]; compound 10.0 µM): 63%
residual activity ([27]; compound 0.1 µM): 99%
residual activity ([27]; compound 1.0 µM): 86%
residual activity ([27]; compound 10.0 µM): 87%
residual activity ([28]; compound 0.1 µM): 103%
residual activity ([28]; compound 1.0 µM): 101%
residual activity ([28]; compound 10.0 µM): 102%
residual activity ([29]; compound 0.1 µM): 91%
residual activity ([29]; compound 1.0 µM): 100%
residual activity ([29]; compound 10.0 µM): 90%
residual activity ([30]; compound 0.1 µM): 108%
residual activity ([30]; compound 1.0 µM): 103%
residual activity ([30]; compound 10.0 µM): 110%
residual activity ([31]; compound 0.1 µM): 115%
residual activity ([31]; compound 1.0 µM): 91%
residual activity ([31]; compound 10.0 µM): 87%
residual activity ([32]; compound 0.1 µM): 102%
residual activity ([32]; compound 1.0 µM): 91%
residual activity ([32]; compound 10.0 µM): 61%
residual activity ([33]; compound 0.1 µM): 85%
residual activity ([33]; compound 1.0 µM): 103%
residual activity ([33]; compound 10.0 µM): 78%
residual activity ([34]; compound 0.1 µM): 48%
residual activity ([34]; compound 1.0 µM): 16%
residual activity ([34]; compound 10.0 µM): 4%
residual activity ([35]; compound 1.0 µM): 111%
residual activity ([35]; compound 10.0 µM): 89%
SMILES: CCn1c(-c2nonc2N)nc2cncc(CNC3CCNCC3)c21

residual activity ([1]; compound 1.0 µM): 70%
residual activity ([1]; compound 10.0 µM): 54%
residual activity ([2]; compound 1.0 µM): 88%
residual activity ([2]; compound 10.0 µM): 92%
residual activity ([3]; compound 1.0 µM): 54%
residual activity ([3]; compound 10.0 µM): 14%
residual activity ([4]; compound 10.0 µM): 26%
residual activity ([5]; compound 1.0 µM): 58%
residual activity ([5]; compound 10.0 µM): 22%
residual activity ([6]; compound 1.0 µM): 101%
residual activity ([6]; compound 10.0 µM): 94%
residual activity ([7]; compound 1.0 µM): 41%
residual activity ([7]; compound 10.0 µM): 9%
residual activity ([8]; compound 1.0 µM): 18%
residual activity ([8]; compound 10.0 µM): 3%
residual activity ([9]; compound 1.0 µM): 91%
residual activity ([9]; compound 10.0 µM): 61%
residual activity ([10]; compound 1.0 µM): 92%
residual activity ([10]; compound 10.0 µM): 51%
residual activity ([11]; compound 1.0 µM): 88%
residual activity ([11]; compound 10.0 µM): 85%
residual activity ([12]; compound 1.0 µM): 79%
residual activity ([12]; compound 10.0 µM): 49%
residual activity ([13]; compound 1.0 µM): 56%
residual activity ([13]; compound 10.0 µM): 31%
residual activity ([14]; compound 1.0 µM): 78%
residual activity ([14]; compound 10.0 µM): 38%
residual activity ([15]; compound 1.0 µM): 89%
residual activity ([15]; compound 10.0 µM): 68%
residual activity ([16]; compound 1.0 µM): 108%
residual activity ([16]; compound 10.0 µM): 84%
residual activity ([17]; compound 1.0 µM): 84%
residual activity ([17]; compound 10.0 µM): 119%
residual activity ([18]; compound 1.0 µM): 102%
residual activity ([18]; compound 10.0 µM): 97%
residual activity ([19]; compound 1.0 µM): 83%
residual activity ([19]; compound 10.0 µM): 47%
residual activity ([20]; compound 1.0 µM): 97%
residual activity ([20]; compound 10.0 µM): 72%
residual activity ([21]; compound 1.0 µM): 111%
residual activity ([21]; compound 10.0 µM): 92%
residual activity ([22]; compound 1.0 µM): 94%
residual activity ([22]; compound 10.0 µM): 55%
residual activity ([23]; compound 1.0 µM): 88%
residual activity ([23]; compound 10.0 µM): 51%
residual activity ([24]; compound 1.0 µM): 85%
residual activity ([24]; compound 10.0 µM): 42%
residual activity ([25]; compound 1.0 µM): 97%
residual activity ([25]; compound 10.0 µM): 89%
residual activity ([26]; compound 1.0 µM): 100%
residual activity ([26]; compound 10.0 µM): 81%
residual activity ([27]; compound 1.0 µM): 90%
residual activity ([27]; compound 10.0 µM): 93%
residual activity ([28]; compound 1.0 µM): 112%
residual activity ([28]; compound 10.0 µM): 90%
residual activity ([29]; compound 1.0 µM): 74%
residual activity ([29]; compound 10.0 µM): 26%
residual activity ([30]; compound 1.0 µM): 79%
residual activity ([30]; compound 10.0 µM): 52%
residual activity ([31]; compound 1.0 µM): 92%
residual activity ([31]; compound 10.0 µM): 97%
residual activity ([32]; compound 1.0 µM): 95%
residual activity ([32]; compound 10.0 µM): 67%
residual activity ([33]; compound 1.0 µM): 95%
residual activity ([33]; compound 10.0 µM): 81%
residual activity ([34]; compound 1.0 µM): 93%
residual activity ([34]; compound 10.0 µM): 97%
residual activity ([35]; compound 1.0 µM): 35%
residual activity ([35]; compound 10.0 µM): 9%
SMILES: COc1cc(C(=O)N2CCOCC2)c(F)cc1Nc1ncc(C(F)(F)F)c(NC2CC2)n1
